Reference: PMC12288609 (Bioorganic & medicinal chemistry letters, 2024)
Like-named read-outs stand apart in the source and are kept apart here. Marks after values point to notes of the source that are not given here.

How the values were obtained:
[1] = test system: HUVECs; conditions: cited from earlier work; for Tube formation IC50: endothelial cell tube formation assay, n.i. = no inhibition, tested at 10–100 μM without significant antiangiogenic activity
[2] = biological target: human TBD (residues 319–425 of human CRBN); design: method as in PMID 33310190; conditions: affinity to human TBD, n.b. = no significant CRBN binding, cited from earlier work
[3] = IAM chromatography, chromatographic hydrophobicity index; type: physicochemical; conditions: pH 7.4 mobile phase
Experimental: Before determining neosubstrate degradation, an obvious effect of fluorination was experimentally specified in this study, i.e., the alteration of lipophilicity. Distribution coefficients at pH 7.4 were determined by an HPLC-based method.[14] As expected, the lipophilicity (elogD7.4) increased due to the introduction of fluorine, and elogD differences were in the range of 0.8 to 1.2 (Table 1). […] The exchange of the glutarimide in 1, 2, 5, and 6 by the barbituric acid unit in 3, 4, 7, and 8 increased lipophilicity by elogD differences of 1.3 to 1.7. Drug-membrane interactions were assessed by a high-throughput HPLC method on an Immobilized Artificial Membrane (IAM) column consisting of monolayers of phospholipids covalently bound to silica particles.[15]
[16] IAM chromatography was performed with a Regis IAM.PC.DD2 column (100 × 4.6 mm, 10 μm, 300 Å) equipped with a guard cartridge at 25 °C as described.[14] Mobile phase A was 50 mM NH4OAc, pH 7.4, mobile phase B was MeCN. The retention times were determined with a gradient of 0 to 95% MeCN from 0 to 6 min, which was kept at 95% until 6.5 min, then dropped to 0% from 6.5 to 7 min, and finally kept at 0% until 9 min. The mobile phase flow rate was 1.5 mL/min. A calibration was performed by plotting the retention times of paracetamol, acetanilide, acetophenone, propiophenone, butyrophenone, valerophenone, and octanophenone against their literature CHI values.[15].

[4] = Distribution coefficient at pH 7.4 by HPLC-based method; type: physicochemical; conditions: pH 7.4, estimated by an HPLC-based method; for chromatographic logD: HPLC-based method (chromatographic retention), read-out: elogD7.4
[5] = test system: HUVECs; assay: CCK-8 cell proliferation assay, HUVEC; type: cell-based, human; conditions: 48 h
Experimental: (§1) HUVEC cells were cultured as described.[13]
(§2) [19] For the cell proliferation assay, HUVEC (15,000 cells/well) and MM1.S (20,000 cells/well) cells were seeded in a 96-well plate in 50 μL/well and allowed to incubate overnight at 37 °C in 5% CO2. An equal amount of treatment media containing the vehicle (0.5% DMSO), or the test compound was then plated on top of the seeded for 48 hours (HUVEC) or 72 hours (MM1.S). Cell proliferation was evaluated by adding 10 μL of Cell Counting Reagent-8 (CCK-8; Dojindo Laboratories, Rockville, MD) to each well and incubated for 2 hours. Plates were read at absorbance of 450 nm on a microplate reader (SpectraMax iD3, Molecular Devices, San Jose, CA).

[6] = test system: multiple myeloma MM1.S cells; assay: CCK-8 cell proliferation assay, MM1.S; type: cell-based; conditions: 10 μM, 72 h
Experimental: as §1, §2

[7] = biological target: SALL4 (Homo sapiens, UniProt Q96SW2+Q9UJQ4); assay: SALL4 degradation in HuH6 cells, Western blot; conditions: 16 h; for Neosubstrate degradation (%) SALL4: 1.0 μM, Western blot densitometry normalized to DMSO; for SALL4 degradation (Western blot, in words): 1.0 μM (0.1 μM in Fig. S2)
Chain of SALL4 (Q9UJQ4 whole entry): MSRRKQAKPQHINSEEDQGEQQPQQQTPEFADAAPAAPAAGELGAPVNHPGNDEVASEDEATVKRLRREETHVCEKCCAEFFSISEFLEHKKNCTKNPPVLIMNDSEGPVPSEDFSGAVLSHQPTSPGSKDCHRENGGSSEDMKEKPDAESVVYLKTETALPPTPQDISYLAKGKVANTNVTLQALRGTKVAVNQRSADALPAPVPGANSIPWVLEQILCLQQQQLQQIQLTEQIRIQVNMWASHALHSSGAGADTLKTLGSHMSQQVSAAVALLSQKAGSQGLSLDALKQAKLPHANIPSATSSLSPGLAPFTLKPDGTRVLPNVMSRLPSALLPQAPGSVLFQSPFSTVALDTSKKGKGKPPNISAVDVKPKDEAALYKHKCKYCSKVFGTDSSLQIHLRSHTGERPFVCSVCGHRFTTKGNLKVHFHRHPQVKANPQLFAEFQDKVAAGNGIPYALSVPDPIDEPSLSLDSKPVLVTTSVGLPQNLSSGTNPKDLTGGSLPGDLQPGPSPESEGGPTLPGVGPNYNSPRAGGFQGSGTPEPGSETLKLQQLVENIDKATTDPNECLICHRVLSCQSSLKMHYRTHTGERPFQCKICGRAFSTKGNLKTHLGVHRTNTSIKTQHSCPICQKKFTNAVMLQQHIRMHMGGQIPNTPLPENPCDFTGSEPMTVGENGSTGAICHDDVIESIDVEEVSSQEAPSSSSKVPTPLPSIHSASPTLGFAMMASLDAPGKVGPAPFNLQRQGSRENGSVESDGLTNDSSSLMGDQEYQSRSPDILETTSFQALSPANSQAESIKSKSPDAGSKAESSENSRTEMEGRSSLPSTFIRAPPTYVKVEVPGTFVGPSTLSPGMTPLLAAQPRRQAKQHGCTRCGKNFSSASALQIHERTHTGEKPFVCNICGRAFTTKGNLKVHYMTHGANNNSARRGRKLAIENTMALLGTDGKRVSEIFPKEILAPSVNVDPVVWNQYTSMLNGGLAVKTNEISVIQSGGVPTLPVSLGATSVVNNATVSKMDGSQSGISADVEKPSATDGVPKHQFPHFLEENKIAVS
Chain of SALL4 (Q96SW2 whole entry): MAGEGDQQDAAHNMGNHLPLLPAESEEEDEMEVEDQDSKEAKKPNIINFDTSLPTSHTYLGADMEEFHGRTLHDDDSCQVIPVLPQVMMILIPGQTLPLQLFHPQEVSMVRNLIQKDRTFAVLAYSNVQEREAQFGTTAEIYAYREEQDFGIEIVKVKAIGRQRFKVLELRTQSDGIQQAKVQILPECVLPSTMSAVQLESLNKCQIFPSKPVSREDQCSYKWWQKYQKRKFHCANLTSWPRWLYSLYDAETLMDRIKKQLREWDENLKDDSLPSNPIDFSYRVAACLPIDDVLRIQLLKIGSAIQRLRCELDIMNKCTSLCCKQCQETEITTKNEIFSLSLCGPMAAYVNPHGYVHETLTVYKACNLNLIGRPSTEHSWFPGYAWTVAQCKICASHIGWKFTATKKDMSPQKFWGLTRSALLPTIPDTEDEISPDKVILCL
Chain of SALL4 (Q16531 whole entry partner): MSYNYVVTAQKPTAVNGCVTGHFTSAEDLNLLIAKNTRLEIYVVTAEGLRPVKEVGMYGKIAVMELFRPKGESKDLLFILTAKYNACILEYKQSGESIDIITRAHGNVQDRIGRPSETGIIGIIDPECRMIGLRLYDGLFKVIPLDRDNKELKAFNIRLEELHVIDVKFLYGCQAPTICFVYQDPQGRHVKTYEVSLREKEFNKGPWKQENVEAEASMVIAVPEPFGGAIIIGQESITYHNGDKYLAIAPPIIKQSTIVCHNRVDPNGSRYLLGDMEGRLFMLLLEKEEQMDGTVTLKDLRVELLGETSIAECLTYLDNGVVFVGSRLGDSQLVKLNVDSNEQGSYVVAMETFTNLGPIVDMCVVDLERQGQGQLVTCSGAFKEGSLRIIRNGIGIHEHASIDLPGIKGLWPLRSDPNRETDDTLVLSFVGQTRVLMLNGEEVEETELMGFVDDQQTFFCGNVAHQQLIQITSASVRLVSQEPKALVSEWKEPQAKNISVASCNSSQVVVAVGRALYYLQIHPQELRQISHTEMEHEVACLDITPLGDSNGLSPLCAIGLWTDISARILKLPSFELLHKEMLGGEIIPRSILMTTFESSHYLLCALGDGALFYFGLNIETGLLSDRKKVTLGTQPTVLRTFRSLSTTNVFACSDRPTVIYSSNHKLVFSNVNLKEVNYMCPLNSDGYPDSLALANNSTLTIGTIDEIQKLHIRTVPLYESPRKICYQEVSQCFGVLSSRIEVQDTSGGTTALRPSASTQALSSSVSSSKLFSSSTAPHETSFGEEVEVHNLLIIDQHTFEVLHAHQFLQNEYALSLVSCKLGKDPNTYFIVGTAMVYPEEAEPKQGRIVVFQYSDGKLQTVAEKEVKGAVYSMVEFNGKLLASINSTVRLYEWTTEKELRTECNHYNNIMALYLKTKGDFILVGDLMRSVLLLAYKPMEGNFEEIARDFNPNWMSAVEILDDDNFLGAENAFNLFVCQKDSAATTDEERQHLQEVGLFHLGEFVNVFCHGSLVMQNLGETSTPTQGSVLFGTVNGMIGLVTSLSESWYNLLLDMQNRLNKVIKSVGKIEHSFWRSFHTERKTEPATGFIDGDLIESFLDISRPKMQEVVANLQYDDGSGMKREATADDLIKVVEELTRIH
Chain of SALL4 (Q13619 whole entry partner): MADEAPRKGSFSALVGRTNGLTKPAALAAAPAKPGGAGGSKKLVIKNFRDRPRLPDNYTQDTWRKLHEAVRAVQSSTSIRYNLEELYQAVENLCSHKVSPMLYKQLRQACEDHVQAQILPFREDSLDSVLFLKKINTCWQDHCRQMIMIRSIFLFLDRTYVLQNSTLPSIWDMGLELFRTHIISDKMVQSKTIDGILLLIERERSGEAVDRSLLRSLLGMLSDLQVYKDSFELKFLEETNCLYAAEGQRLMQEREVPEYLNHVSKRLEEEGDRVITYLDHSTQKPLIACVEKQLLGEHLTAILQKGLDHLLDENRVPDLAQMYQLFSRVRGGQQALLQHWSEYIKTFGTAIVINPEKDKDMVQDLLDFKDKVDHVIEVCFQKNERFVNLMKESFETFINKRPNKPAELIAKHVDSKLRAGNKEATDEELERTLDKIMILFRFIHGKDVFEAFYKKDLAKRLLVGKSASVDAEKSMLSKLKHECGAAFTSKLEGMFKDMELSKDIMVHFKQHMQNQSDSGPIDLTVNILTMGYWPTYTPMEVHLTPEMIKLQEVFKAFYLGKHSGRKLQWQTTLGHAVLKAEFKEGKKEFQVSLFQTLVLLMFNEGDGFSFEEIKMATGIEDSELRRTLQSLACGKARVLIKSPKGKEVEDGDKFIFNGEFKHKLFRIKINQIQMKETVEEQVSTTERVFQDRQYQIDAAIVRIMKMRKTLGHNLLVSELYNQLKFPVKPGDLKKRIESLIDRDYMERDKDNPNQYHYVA
Chain of SALL4 (P62877 whole entry partner): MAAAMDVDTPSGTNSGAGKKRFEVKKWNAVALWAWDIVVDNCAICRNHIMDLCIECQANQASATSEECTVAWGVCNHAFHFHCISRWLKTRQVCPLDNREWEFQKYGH

[8] = biological target: IKZF3 (Homo sapiens, UniProt Q96SW2+Q9UKT9); assay: IKZF3 degradation in MM.1S cells, Western blot; conditions: 16 h; for Neosubstrate degradation (%) IKZF3: 1.0 μM, Western blot densitometry normalized to DMSO; for IKZF3 degradation (Western blot, in words): 1.0 μM (0.1 μM in Fig. S2)
Chain of IKZF3 (Q9UKT9 whole entry): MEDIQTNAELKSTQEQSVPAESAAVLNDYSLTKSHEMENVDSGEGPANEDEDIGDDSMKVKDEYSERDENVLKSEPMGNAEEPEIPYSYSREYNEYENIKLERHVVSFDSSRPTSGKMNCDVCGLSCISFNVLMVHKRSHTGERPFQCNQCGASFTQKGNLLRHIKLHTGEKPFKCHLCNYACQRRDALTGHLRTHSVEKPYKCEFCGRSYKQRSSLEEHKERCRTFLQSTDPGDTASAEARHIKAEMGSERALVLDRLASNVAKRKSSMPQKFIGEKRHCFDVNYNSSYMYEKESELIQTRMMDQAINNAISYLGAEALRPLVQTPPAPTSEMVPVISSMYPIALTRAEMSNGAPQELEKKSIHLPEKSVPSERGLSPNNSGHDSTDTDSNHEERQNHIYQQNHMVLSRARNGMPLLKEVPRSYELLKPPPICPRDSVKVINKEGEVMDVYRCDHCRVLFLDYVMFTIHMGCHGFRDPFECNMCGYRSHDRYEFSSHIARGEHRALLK
Chain of IKZF3 (Q96SW2 whole entry): as the sequence (Q96SW2 whole entry) above
Chain of IKZF3 (Q16531 whole entry partner): as the sequence (Q16531 whole entry partner) above
Chain of IKZF3 (Q13619 whole entry partner): as the sequence (Q13619 whole entry partner) above
Chain of IKZF3 (P62877 whole entry partner): as the sequence (P62877 whole entry partner) above

[9] = test system: HUVECs; assay: Endothelial cell tube formation assay
[10] = Metabolic stability in human liver microsomes
Experimental: Metabolic stability analyses in human liver microsomes were performed by Pharmacelsus (Saarbrücken, Germany) as described.[14].

[11] = cited from earlier work
[12] = biological target: IKZF3-GFP fusion protein (Homo sapiens, UniProt Q96SW2+Q9UKT9); conditions: MM.1S cells, 16 h, 0.1 μM, 1.0 μM and 10 μM
Chain of IKZF3-GFP fusion protein (Q9UKT9 146-168 limits assumed): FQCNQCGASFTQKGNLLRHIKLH
Chain of IKZF3-GFP fusion protein (Q96SW2 whole entry, the tested form may be a part): as the sequence (Q96SW2 whole entry) above
Chain of IKZF3-GFP fusion protein (Q16531 whole entry partner, the tested form may be a part): as the sequence (Q16531 whole entry partner) above
Chain of IKZF3-GFP fusion protein (Q13619 whole entry partner, the tested form may be a part): as the sequence (Q13619 whole entry partner) above
Chain of IKZF3-GFP fusion protein (P62877 whole entry partner, the tested form may be a part): as the sequence (P62877 whole entry partner) above
Experimental: This method distinguished direct effects on protein degradation from effects that regulate transcriptional expression.
In brief, the plasmid comprised the IMiD-binding zinc finger 2 (ZF2) of IKZF3 fused to eGFP with mCherry in vector backbone. MM.1S cells were lentivirally transduced with the IKZF3-ZF2 reporter and treated with respective compounds for 16 hours. Flow cytometry was performed for the quantification of eGFP and mCherry mean fluorescence intensity. The eGFP/mCherry ratio was indicative of IKZF3-ZF2 degradation levels. Compound-treated samples were normalized to DMSO-treated samples. Data was obtained with biological replicates (n=3) and representmean± SD.
The Artichoke reporter assay was performed as described.[14] Briefly, HEK293T cells were transfected and virus was harvested. MM1.S cells were transduced and treated with the test compounds. Cells were measured on a Cytoflex (Beckman Coulter) flow cytometer. Live single cells expressing mCherry were gated for FITC and histograms displaying counts were plotted and quantified.

[13] = Homo sapiens, HUVEC, 18 h, read-out: Inhibition of tube formation (%)

In the case of `O=C1CCC(N2C(=O)c3ccccc3C2=O)C(=O)N1` (stereo not shown) [Compound 1, thalidomide, reference compound], the “Block of tube formation” value ([1]; concentration range 12.5–100 μM) is listed as “failed to significantly block tube formation”, the “Tube formation IC50” value [1] is listed as “n.i.^h” and the Ki ([2]; read-out: MST Ki) is listed as 8.55 µM. For the same compound, the CHIIAM [3] was 12.5, the chromatographic logD [4] was 0.5 and the “Effect on HUVEC proliferation” value ([5]; 100 μM) was “decreased neither HUVEC proliferation”.
In the case of `O=C1CCC(N2C(=O)c3c(F)c(F)c(F)c(F)c3C2=O)C(=O)N1` (stereo not shown) [Compound 2, Tetrafluoro-thalidomide], the “Reduction of MM1.S growth” value [6] is reported as 95%, the CHIIAM [3] is reported as 17.8 and the “Neosubstrate degradation (%) SALL4” value [7] is reported as under 5%. The “Reduction of HUVEC growth” value ([5]; 10 μM) was 48%, the “Neosubstrate degradation (%) IKZF3” value [8] was under 5% and the “Antiangiogenic activity in the tube formation assay” value ([9]; 10 μM, HUVECs) was “significantly inhibited tubule formation”. The inhibition at 10 µM [9, 13] was 95.3%.
In the case of `CC(C)N1C(=O)NC(=O)C(C)(N2C(=O)c3ccccc3C2=O)C1=O` (stereo not shown) [Compound 3], the “Tube formation IC50” value [1] is listed as “n.i”, the “MST Ki” value [2] is listed as “n.b.^i” and the “Effect on MM1.S cell growth” value [6] is listed as “did not affect HUVEC or MM1.S cell growth”. The CHIIAM [3] was 28.9, the chromatographic logD [4] was 2.2 and the “Neosubstrate degradation (%) SALL4” value [7] was under 5%. For the same compound, the “Effect on HUVEC cell growth” value ([5]; 10 μM) was “did not affect HUVEC or MM1.S cell growth”, the half-life [10] was over 1 h and the microsomal CLint at 1 h [10] was 10.3 µL/min/mg. For the same compound, the “Neosubstrate degradation (%) IKZF3” value [8] was 11%.
In the case of `CC(C)N1C(=O)NC(=O)C(C)(N2C(=O)c3c(F)c(F)c(F)c(F)c3C2=O)C1=O` (stereo not shown) [Compound 4], the “MST Ki” value [2] is listed as “n.b”, the “Reduction of MM1.S growth” value [6] is listed as over 95% and the CHIIAM [3] is listed as 31.6. For the same compound, the elogD7.4 [4] was 3.0, the “Neosubstrate degradation (%) SALL4” value [7] was under 5% and the “Reduction of HUVEC growth” value ([5]; 10 μM) was over 95%. The half-life [10] was over 1 h, the microsomal CLint at 1 h [10] was 4.6 µL/min/mg and the “Neosubstrate degradation (%) IKZF3” value [8] was under 5%.
In the case of `O=C1CCC(NC(=O)c2ccccc2)C(=O)N1` (stereo not shown) [Compound 5], the elogD7.4 ([11]; pH 7.4) is listed as −0.3^j.
For `O=C1CCC(NC(=O)c2cc(F)c(F)c(F)c2F)C(=O)N1` (stereo not shown) [Compound 6], the elogD7.4 ([11]; pH 7.4, HPLC-based method) is given as 0.9^j.
In the case of `CC(C)N1C(=O)NC(=O)C(C)(NC(=O)c2ccccc2)C1=O` (stereo not shown) [Compound 7], the “Tube formation IC50” value [1] is given as “n.i”, the “MST Ki” value [2] is given as “n.b” and the CHIIAM [3] is given as 20.9. The chromatographic logD [4] was 1.2, the “Neosubstrate degradation (%) SALL4” value [7] was under 5% and the “Neosubstrate degradation (%) IKZF3” value [8] was under 5%.
In the case of `CC(C)N1C(=O)NC(=O)C(C)(NC(=O)c2cc(F)c(F)c(F)c2F)C1=O` (stereo not shown) [Compound 8], the “Tube formation IC50” value [1] is listed as “n.i”, the “MST Ki” value [2] is listed as “n.b” and the CHIIAM [3] is listed as 27.9. The chromatographic logD [4] was 2.2, the “Neosubstrate degradation (%) SALL4” value [7] was under 5% and the “Neosubstrate degradation (%) IKZF3” value [8] was under 5%.
With `O=C1CCC(NC(=O)c2ccccc2F)C(=O)N1` (stereo not shown) [Compound 9, N-(2,6-Dioxo-3-piperidyl)-2-fluorobenzamide] the CHIIAM [3] was 5.7, the chromatographic logD [4] was -0.1 and the inhibition at 100 µM [9, 13] was 13.4%.
In the case of `O=C1CCC(NC(=O)c2cccc(F)c2)C(=O)N1` (stereo not shown) [Compound 10, N-(2,6-Dioxo-3-piperidyl)-3-fluorobenzamide], the CHIIAM [3] is reported as 10.6, the chromatographic logD [4] is reported as 0.1 and the inhibition at 100 µM [9, 13] is reported as 10.3%.
With `O=C1CCC(NC(=O)c2ccc(F)cc2)C(=O)N1` (stereo not shown) [Compound 11, N-(2,6-Dioxo-3-piperidyl)-4-fluorobenzamide] the CHIIAM [3] was 10.1, the chromatographic logD [4] was 0.1 and the inhibition at 100 µM [9, 13] was 17.9%.
Work on `O=C1CCC(NC(=O)c2cccc(F)c2F)C(=O)N1` (stereo not shown) [Compound 12] yielded a CHIIAM [3] of 7.6, a chromatographic logD [4] of 0.3 and an inhibition at 100 µM [9, 13] of 31.1%.
Compound `O=C1CCC(NC(=O)c2ccc(F)cc2F)C(=O)N1` (stereo not shown) [Compound 13] has a CHIIAM [3] of 7.2, a chromatographic logD [4] of 0.3 and an inhibition at 100 µM [9, 13] of 35.8%.
For `O=C1CCC(NC(=O)c2cc(F)ccc2F)C(=O)N1` (stereo not shown) [Compound 14], the CHIIAM [3] was 7.2, the chromatographic logD [4] was 0.3 and the inhibition at 100 µM [9, 13] was 24.2%.
`O=C1CCC(NC(=O)c2cc(F)cc(F)c2)C(=O)N1` (stereo not shown) [Compound 15] gave a CHIIAM [3] of 12.3, a chromatographic logD [4] of 0.6 and an inhibition at 100 µM [9, 13] of 44.3%.
For `O=C1CCC(NC(=O)c2ccc(F)c(F)c2)C(=O)N1` (stereo not shown) [Compound 16], the CHIIAM [3] was 13.6, the chromatographic logD [4] was 0.6 and the inhibition at 100 µM [9, 13] was 15.5%.
Work on `O=C1CCC(NC(=O)c2ccc(F)c(F)c2F)C(=O)N1` (stereo not shown) [Compound 17] yielded a CHIIAM [3] of 12.2, a chromatographic logD [4] of 0.7 and an inhibition at 100 µM [9, 13] of 30.3%.
With `O=C1CCC(NC(=O)c2cc(F)c(F)cc2F)C(=O)N1` (stereo not shown) [Compound 18] the CHIIAM [3] was 11.0, the chromatographic logD [4] was 0.6 and the “Inhibition of tube formation (%)” value ([9]; 100 μM, 18 h, HUVECs, relative to vehicle control, n.i. = no inhibition) was “n.i.^d”.
`O=C1CCC(NC(=O)c2cc(F)c(F)c(F)c2)C(=O)N1` (stereo not shown) [Compound 19] gave a CHIIAM [3] of 17.9, a chromatographic logD [4] of 1 and an inhibition at 100 µM [9, 13] of 8.1%.
For `N#Cc1ccc(N2CCN(Cc3ccc(COc4cccc5c4CN([C@H]4CCC(=O)NC4=O)C5=O)cc3)CC2)c(F)c1` [mezigdomide, reference compound], the “Abundance of IKZF3-GFP (eGFP/mCherry ratio, DMSO-normalized)” value [12] was “induced to a greater extent”, the “SALL4 degradation (Western blot, in words)” value [7] was “degraded IKZF3 and SALL4” and the “IKZF3 degradation (Western blot, in words)” value [8] was “degraded IKZF3 and SALL4”.
In the case of `Nc1cccc2c1C(=O)N(C1CCC(=O)NC1=O)C2=O` (stereo not shown) [pomalidomide, reference compound], the “Abundance of IKZF3-GFP (eGFP/mCherry ratio, DMSO-normalized)” value [12] is reported as “induced to a greater extent”, the “SALL4 degradation (Western blot, in words)” value [7] is reported as “degraded IKZF3 and SALL4” and the “IKZF3 degradation (Western blot, in words)” value [8] is reported as “degraded IKZF3 and SALL4”.
